Patent US11384109B2, “Method for separating phenolic acid glucoside compounds from Diaphragma juglandis Fructu” (Jiangnan University, priority 2020, dated 2022)
Marks after values point to notes of the source that are not given here.

Experiments:
[1] = test system: aging model mice induced by D-galactose; experiment: Antioxidant effects in subacute aging model mice induced by D-galactose (serum SOD by ELISA, liver MDA by colorimetry); format: in vivo, ICR mice; settings: 500 mg/kg by gavage for 6 weeks; for Liver MDA / Serum SOD: 150 mg/kg D-galactose s.c., 24 hours after last administration, x ± s, 10 mice per group; for Liver MDA: 10% liver homogenate; for liver MDA content compared with the model group / serum SOD activity compared with the model group: result in words, One-way ANOVA Dunnett test
Excerpt: 1.1 Animals: ICR mice, 6 weeks old, 20-25 g, SPF grade, purchased from Shanghai Slack Experimental Animal Co., Ltd.
1.2 Reagents: D-galactose, purchased from Sigma, USA; malondialdehyde (MDA) kit, purchased from Nanjing Jiancheng Bioengineering Institute; superoxide dismutase (SOD) kit, purchased from Shanghai Aisalai Eliza Biotechnology Co., Ltd.
2.1 Animal grouping and administration: after one week of adaptive feeding, mice were randomly divided into 5 groups, 10 mice each group. The administration group was gavaged with Compounds 1-3, 500 mg/kg per compound. The blank group and aging model group were gavaged with equal volume of normal saline for 6 weeks. At the same time, 150 mg/kg D-galactose was injected subcutaneously into the aging model group and the administration group respectively to establish a subacute aging model of mice. The blank control group was injected with equal volume of normal saline for 6 weeks.
2.2 Sample preparation and index determination: 24 hours after the last administration, blood was collected from the eyeballs of mice; after dislocation for execution, the liver was removed, cleaned and ground at low temperature to prepare 10% tissue homogenate, which was centrifuged at 3500 rpm and 4° C. for 10 min, and supernatant was taken and stored at −20° C. The content of MDA in the liver tissue was determined by colorimetry, and the activity of SOD in serum was determined by ELISA.
2.3 Statistical analysis: the results were expressed as x±s. The results were analyzed by One-way ANOVA Dunnett test using SPSS 20 software.

[2] = Solubility description of the isolated compounds

| Compound | Liver MDA [1] | Serum SOD [1] | liver MDA content compared with the model group [1] | serum SOD activity compared with the model group [1] | solubility in chloroform [2] | solubility in water, ethanol and the like [2] |
| --- | --- | --- | --- | --- | --- | --- |
| COc1ccc(O)c(O[C@@H]2O[C@H](CO)[C@@H](O)[C@H](O)[C@H]2O)c1 [Compound 1, 2-hydroxyl-5-methoxylphenyl-O-β-D-glucopyranoside] | 0.211 ± 0.019^a nmol/mg tissue | 94.90 ± 8.07^a U/mL | significantly (P<0.05) decreased | significantly (P<0.05) increased | insoluble | soluble |
| OC[C@H]1O[C@@H](Oc2ccc3cc(O)ccc3c2O[C@@H]2O[C@H](CO)[C@@H](O)[C@H](O)[C@H]2O)[C@H](O)[C@@H](O)[C@@H]1O [Compound 2, 6-hydroxylnaphthyl-1,2-di-O-β-D-glucopyranoside] | 0.198 ± 0.037^a nmol/mg tissue | 97.06 ± 10.18^a U/mL | significantly (P<0.05) decreased | significantly (P<0.05) increased |  |  |
| 2,6-dihydroxynaphthyl-O-β-D-glucopyranoside [Compound 3] | 0.183 ± 0.051^a nmol/mg tissue | 103.44 ± 15.75^a U/mL | significantly (P<0.05) lower than that in the model group | significantly (P<0.05) higher than that in the model group | insoluble | soluble |
